Laboratory results: PMC6652808, “The Inhibitory Effect of GlmU Acetyltransferase Inhibitor TPSA on Mycobacterium tuberculosis May Be Affected Due to Its Methylation by Methyltransferase Rv0560c” (Frontiers in Cellular and Infection Microbiology, 2019)
Like-named read-outs stand apart in the source and are kept apart here.

Tests used:
Test in all cases: biochemical
GlmU [1] = biological target: T1, GlmU (Mycobacterium tuberculosis, UniProt P9WMN3); design: DTNB colorimetric assay of GlmU acetyltransferase activity, absorbance at 405 nm
T1 sequence (P9WMN3 2-495): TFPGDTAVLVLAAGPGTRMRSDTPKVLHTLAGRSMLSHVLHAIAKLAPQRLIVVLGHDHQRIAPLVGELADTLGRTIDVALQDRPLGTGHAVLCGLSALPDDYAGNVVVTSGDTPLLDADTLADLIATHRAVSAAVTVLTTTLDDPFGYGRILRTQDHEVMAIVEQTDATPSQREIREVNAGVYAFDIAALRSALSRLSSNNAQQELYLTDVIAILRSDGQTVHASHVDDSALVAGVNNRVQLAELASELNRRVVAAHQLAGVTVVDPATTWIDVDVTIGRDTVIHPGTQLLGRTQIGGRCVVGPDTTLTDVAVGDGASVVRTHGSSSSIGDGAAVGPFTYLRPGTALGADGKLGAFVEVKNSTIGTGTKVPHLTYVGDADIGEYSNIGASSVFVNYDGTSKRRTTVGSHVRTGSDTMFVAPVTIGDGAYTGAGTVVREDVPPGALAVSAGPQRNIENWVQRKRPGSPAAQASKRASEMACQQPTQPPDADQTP

GlmU [2] = biological target: T1, GlmU; design: Inhibition constants from double reciprocal plots, DTNB acetyltransferase assay with varied substrate
GlmU [3] = biological target: T1, GlmU; design: Inhibition constants from double reciprocal plots, DTNB acetyltransferase assay with varied substrate; remark: listed apart in the source
GlmU [4] = biological target: T1, GlmU; design: Inhibition constants from double reciprocal plots, DTNB acetyltransferase assay with varied substrate; remark: listed apart in the source

| SMILES | IC50 (GlmU [1]) [µM] | Ki (GlmU [2]) [µM] | Ki (GlmU [3]) [µM] | Ki (GlmU [4]) [µM] |
| --- | --- | --- | --- | --- |
| O=C1CC(=O)c2c1cccc2[N+](=O)[O-] [NID, 4-nitroindane-1,3-dione] | 124 | – | – | – |
| O=c1oc2ccccc2c2c1Sc1ccccc1N2 [BCTZ, 6,12-dihydrobenzo[b]chromeno[4,3-e][1,4]thiazin-6-one] | 61.7 | 82.8 | 81.6 | – |
| O=C1C=CC(=O)N1c1cccc(N2C(=O)C=CC2=O)c1 [DHPP, 1-[3-(2,5-dioxo-2,5-dihydro-1H-pyrrol-1-yl)phenyl]-2,5-dihydro-1H-pyrrole-2,5-dione] | 10.3 | 26.3 | – | 26.4 |
| Cc1ccc(C)n1-c1ccsc1C(=O)O [MPTC, 3-(2,5-dimethyl-1H-pyrrol-1-yl)thiophene-2-carboxylic acid] | 159 | – | – | – |
| O=C1NC(=S)SC1=Cc1ccc(OCc2ccc([N+](=O)[O-])cc2)cc1 [NBTT, 5-{4-[(4-nitrobenzyl)oxy]benzylidene}-2-thioxo-1,3-thiazolan-4-one] | 65.1 | 41.3 | – | 40.2 |
